IC50, Change and inhibition data for 22 compounds are collected here from ChEMBL document CHEMBL1124434, “2H-[1]benzopyrano[3,4-b]pyridines: synthesis and activity at central monoamine receptors” (J Med Chem, 1989).

pIC50: −log10 of the molar value.

For test [1], the target named is T1, 5-hydroxytryptamine receptor 1B (Rattus norvegicus, UniProt P28564). Put plainly: (§1) Concentration necessary to achieve half maximal inhibition of [125I]- Iodocyanopindolol binding to 5-hydroxytryptamine 1B receptor at 1 uM.
T1 sequence (P28564 whole entry): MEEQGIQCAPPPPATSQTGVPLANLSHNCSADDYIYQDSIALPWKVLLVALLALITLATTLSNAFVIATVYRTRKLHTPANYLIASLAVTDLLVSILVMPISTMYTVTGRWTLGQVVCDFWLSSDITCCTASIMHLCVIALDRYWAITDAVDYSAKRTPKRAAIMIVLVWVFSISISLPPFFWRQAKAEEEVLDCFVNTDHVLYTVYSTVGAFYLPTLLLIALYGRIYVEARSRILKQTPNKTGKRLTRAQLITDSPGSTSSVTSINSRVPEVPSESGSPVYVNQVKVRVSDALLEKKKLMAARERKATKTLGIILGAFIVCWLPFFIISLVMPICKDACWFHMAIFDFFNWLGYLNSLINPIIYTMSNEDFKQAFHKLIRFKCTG
The target of test [2] is T2, Serotonin 2 (5-HT2) receptor (Rattus norvegicus, UniProt P30994+P08909+P14842). Description: (§2) Concentration necessary to achieve half maximal inhibition of [3H]ketanserin binding to 5-hydroxytryptamine 2 receptor at 1 uM. The format is protein assay.
Test [3] deals with 5-hydroxytryptamine receptor 1B (Rattus norvegicus) (UniProt P28564). The description is as §1.
Chain of 5-hydroxytryptamine receptor 1B (Rattus norvegicus) (P28564 whole entry): as above
Test [4] deals with T3, Dopamine receptor (Bos taurus, UniProt Q95136+P20288). Put plainly: (§3) Concentration necessary to achieve half maximal inhibition of [3H]spiperone binding dopamine receptor at 1 uM. The format is protein assay.
The target of test [5] is T4, Alpha-2A adrenergic receptor (Bos taurus, UniProt Q28838).
T4 sequence (Q28838 whole entry): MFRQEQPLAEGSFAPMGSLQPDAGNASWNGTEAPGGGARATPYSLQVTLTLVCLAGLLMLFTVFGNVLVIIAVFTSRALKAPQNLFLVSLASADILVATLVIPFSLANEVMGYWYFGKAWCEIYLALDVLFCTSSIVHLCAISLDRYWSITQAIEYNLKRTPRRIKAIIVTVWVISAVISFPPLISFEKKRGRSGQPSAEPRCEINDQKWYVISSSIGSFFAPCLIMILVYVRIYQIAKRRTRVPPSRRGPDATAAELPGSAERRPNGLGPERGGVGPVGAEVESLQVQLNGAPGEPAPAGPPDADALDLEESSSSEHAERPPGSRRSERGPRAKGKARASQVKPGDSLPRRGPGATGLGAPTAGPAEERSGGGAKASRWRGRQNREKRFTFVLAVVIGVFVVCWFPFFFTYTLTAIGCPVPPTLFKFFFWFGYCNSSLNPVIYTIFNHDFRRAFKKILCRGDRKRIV
Put plainly: Concentration necessary to achieve half maximal inhibition of [3H]clonidine binding to alpha-2 adrenergic receptor at 1 uM.

The target in test [6] is T3, Dopamine receptor. Put plainly: (§4) Concentration necessary to achieve half maximal inhibition of [3H](+)-[…]-6,7-dihydroxy-1,2,3,4-tetrahydronaphthalene binding to dopamine receptor at 1 uM. The format is protein assay.
The target of test [7] is T5, 5-hydroxytryptamine receptor 1A (Rattus norvegicus, UniProt P19327).
T5 sequence (P19327 whole entry): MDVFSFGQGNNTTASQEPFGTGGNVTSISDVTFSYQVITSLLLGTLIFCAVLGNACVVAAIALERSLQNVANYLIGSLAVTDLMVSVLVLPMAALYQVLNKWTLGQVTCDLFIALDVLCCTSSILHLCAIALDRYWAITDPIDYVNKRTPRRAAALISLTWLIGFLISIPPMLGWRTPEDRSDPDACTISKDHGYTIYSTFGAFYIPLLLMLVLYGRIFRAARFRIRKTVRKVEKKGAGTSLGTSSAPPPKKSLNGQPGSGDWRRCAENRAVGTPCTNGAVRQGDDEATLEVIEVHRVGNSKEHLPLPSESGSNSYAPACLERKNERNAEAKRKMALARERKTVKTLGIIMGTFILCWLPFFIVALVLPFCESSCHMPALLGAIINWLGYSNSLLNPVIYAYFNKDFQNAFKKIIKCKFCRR
Put plainly: (§5) Concentration necessary to achieve half maximal inhibition of [3H]8-Hydroxy-2-(di-n-propylamino)tetralin binding to 5-hydroxytryptamine 1A receptor at 1 uM.

Test [8] addresses T6, Alpha-2A adrenergic receptor (Bos taurus) (UniProt Q28838).
T6 sequence (whole entry): T4 sequence (Q28838 whole entry)
Put plainly: Concentration necessary to achieve half maximal inhibition of [3H]clonidine binding to alpha-2 adrenergic receptorat 1 uM.

In test [9] the target is T7, 5-hydroxytryptamine receptor 1A (Rattus norvegicus) (UniProt P19327).
T7 sequence (whole entry): T5 sequence (P19327 whole entry)
Described as §5.

Test [10] concerns the target T8, Dopamine receptor (Bos taurus) (UniProt Q95136+P20288). The description is as §3. The format is protein assay.
In test [11] the target is T9, Serotonin 2 (5-HT2) receptor (Rattus norvegicus) (UniProt P30994+P08909+P14842). Described as §2. It counts as protein assay.
T9 sequence (P08909 whole entry, looked up): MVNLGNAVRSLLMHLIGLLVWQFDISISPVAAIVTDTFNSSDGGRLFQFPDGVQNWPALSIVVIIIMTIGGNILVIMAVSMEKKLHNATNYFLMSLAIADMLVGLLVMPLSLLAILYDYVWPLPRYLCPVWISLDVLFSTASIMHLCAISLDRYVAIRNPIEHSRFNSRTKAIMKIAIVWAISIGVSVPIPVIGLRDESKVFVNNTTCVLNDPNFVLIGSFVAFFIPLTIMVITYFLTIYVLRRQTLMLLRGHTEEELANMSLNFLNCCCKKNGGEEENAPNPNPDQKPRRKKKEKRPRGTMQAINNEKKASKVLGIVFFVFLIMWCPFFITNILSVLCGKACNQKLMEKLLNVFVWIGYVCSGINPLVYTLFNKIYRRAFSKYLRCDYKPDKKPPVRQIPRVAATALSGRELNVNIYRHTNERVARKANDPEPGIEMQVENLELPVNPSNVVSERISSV
T9 sequence (P14842 whole entry, looked up): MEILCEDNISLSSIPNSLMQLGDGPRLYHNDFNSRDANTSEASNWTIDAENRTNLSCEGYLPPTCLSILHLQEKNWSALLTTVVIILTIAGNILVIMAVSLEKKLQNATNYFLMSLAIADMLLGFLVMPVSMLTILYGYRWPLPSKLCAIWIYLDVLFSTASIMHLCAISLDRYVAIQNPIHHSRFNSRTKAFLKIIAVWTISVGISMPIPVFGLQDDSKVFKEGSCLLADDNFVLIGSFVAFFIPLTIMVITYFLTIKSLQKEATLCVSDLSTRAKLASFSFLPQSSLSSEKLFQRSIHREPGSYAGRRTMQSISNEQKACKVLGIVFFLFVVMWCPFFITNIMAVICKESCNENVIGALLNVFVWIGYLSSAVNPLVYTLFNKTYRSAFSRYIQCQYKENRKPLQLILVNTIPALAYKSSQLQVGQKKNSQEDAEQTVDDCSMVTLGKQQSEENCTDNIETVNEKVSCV
T9 sequence (P30994 whole entry, looked up): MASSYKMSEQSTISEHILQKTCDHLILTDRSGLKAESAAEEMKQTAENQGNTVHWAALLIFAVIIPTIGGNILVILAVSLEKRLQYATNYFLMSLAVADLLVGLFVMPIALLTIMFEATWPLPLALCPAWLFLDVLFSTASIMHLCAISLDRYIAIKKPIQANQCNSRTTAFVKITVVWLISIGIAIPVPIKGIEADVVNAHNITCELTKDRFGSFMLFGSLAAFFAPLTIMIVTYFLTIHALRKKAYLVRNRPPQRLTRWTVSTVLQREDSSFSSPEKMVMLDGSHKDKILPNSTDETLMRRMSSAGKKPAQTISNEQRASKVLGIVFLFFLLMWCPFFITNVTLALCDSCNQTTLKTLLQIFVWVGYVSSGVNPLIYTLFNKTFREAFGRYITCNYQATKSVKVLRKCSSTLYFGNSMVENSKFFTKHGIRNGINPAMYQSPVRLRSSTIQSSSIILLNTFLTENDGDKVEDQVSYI
Test [12] has as its target T2, Serotonin 2 (5-HT2) receptor. Description: (§6) Concentration necessary to achieve half maximal inhibition of [3H]ketanserin, binds to 5-hydroxytryptamine 2 receptor at 1 uM. The format is protein assay.
The target in test [13] is T1, 5-hydroxytryptamine receptor 1B. Description: Concentration necessary to achieve half maximal inhibition of [125I]- Iodocyanopindolol, binds to 5-hydroxytryptamine 1B receptor at 1 uM.
For test [14], the target named is T8, Dopamine receptor (Bos taurus). Described as §4. It counts as protein assay.
Test [15] concerns the target T4, Alpha-2A adrenergic receptor.
Description: Concentration necessary to achieve half maximal inhibition of [3H]clonidine binding to Alpha-2 adrenergic receptor at 1 uM
Test [16] addresses T2, Serotonin 2 (5-HT2) receptor. Put plainly: Concentration necessary to achieve half maximal inhibition of [3H]-ketanserin binding to 5-hydroxytryptamine 2 receptor. The format is protein assay.
For test [17], the target named is T9, Serotonin 2 (5-HT2) receptor (Rattus norvegicus). Described as §6. It counts as protein assay.

In general, pIC50 refers to −log10 of the IC50, conventionally taken in molar units. Lower therefore signals a large IC50. Compound `FC(F)(F)c1cccc(N2CCNCC2)c1` showed a pIC50 in [1] of 7.29.

The IC50 is the concentration that inhibits the measured activity by half. Read a high IC50 as lower potency. Turning to `CCCN1CCC[C@@H]2c3cccc(O)c3OC[C@H]21`, the IC50 amounted to 1100 nM in test [2], 260 nM at Dopamine receptor [4] and 30 nM on Dopamine receptor [6]. Further, the Change in test [3] was -2%. Also, the pIC50 was 7.11 in test [5] and 6.00 in test [7].

For `CN1CCC[C@@H]2c3cccc(O)c3OC[C@H]21`, the Change was -41% in test [8], -45% in [9], -2% in test [3] and -46% in [10]. In addition, the results for the half-inhibitory concentration (IC50) (in test [2]; at Dopamine receptor [6]) were 1260 nM and 11 nM, respectively.

In the case of `CN1CCC[C@@H]2c3cc(O)ccc3OC[C@H]21`, the Change in test [8] is -64%; in test [9], -13%; in test [3], 6%; in test [11], -27%. Also, the figures for the concentration for half-maximal inhibition (IC50) at Dopamine receptor [4] and at Dopamine receptor [6] were 4080 nM and 114 nM, respectively.

Usually inhibition stands for the drop in the measured response relative to a control, in per cent. For `CN1CCC=C2c3cc(O)ccc3OCC21` (stereo unspecified), the Change in test [9] was -42%; in test [3] it was -6%; in test [11] it was -32%. Moreover, on Dopamine receptor [6], the concentration for half-maximal inhibition (IC50) was determined as 20 nM. The inhibition in test [10] turned out to be 3%.

Compound `CCCN1CCC=C2c3c(OC)cccc3OCC21` (stereo unspecified) displayed an IC50 in test [12] of 839 nM. Besides, the pIC50 is 5.88 in test [13], 6.82 in test [5] and 8.74 in test [7]. The Change in [14] is -13%; in test [10], -36%.

Take `CCCN1CCC[C@@H]2c3ccc(O)cc3OC[C@H]21`: the Change in test [9] was -17%; in test [3] it was -1%; in test [11], -14%. Further, the results for the half-maximal inhibitory concentration (IC50) at Dopamine receptor [4] and on Dopamine receptor [6] were 4830 nM and 16 nM, respectively. This compound had a negative logarithm of the IC50 (pIC50) in test [5] of 6.60.

Take `Clc1cccc(Cl)c1N=C1NCCN1` [CLONIDINE]: in test [15], the pIC50 was 8.70.

`CCCN1CCC=C2c3ccccc3OCC21` (stereo unspecified): the Change in test [3] is -11%; in test [11], -22%; in test [14], -15%; in test [10], -13%. Moreover, the pIC50 in test [5] is 6.68; in test [7], 7.13.

Take `CN(C)CCCSc1ccccc1NC(=O)/C=C/c1ccccc1` [CINANSERIN]: the 50% inhibitory concentration (IC50) in test [2] came out at 2 nM.

In the case of `CCCN1CCC[C@@H]2c3c(O)cccc3OC[C@H]21`, in [2], the half-maximal inhibitory concentration (IC50) amounted to 384 nM. Moreover, the Change in test [3] was -4%; in test [14], -12%; in [10], -23%. Also, the values for the negative-log IC50 (pIC50) in [5] and in [7] were 6.44 and 8.40, respectively.

Take `COc1cccc2c1OC[C@@H]1[C@@H]2CCCN1C`: the Change in test [8] is -24%; in [14], -23%; in test [10], -22%. The compound also had an IC50 in test [2] of 920 nM. In test [3], this compound registered an inhibition of 7%. The negative-log IC50 (pIC50) in test [7] was 6.60.

Compound `CCCN1CCC[C@@H]2c3c(OC)cccc3OC[C@H]21` had an IC50 in test [2] of 114 nM. Further, the Change is -19% in test [3], -9% in test [14] and -53% in test [10]. The figures for the negative-log IC50 (pIC50) in test [5] and in [7] were 7.15 and 8.05, respectively.

`COc1ccc(C)c2c1OC[C@@H]1[C@@H]2CCCN1C`: the Change in [8] is -12%; in test [3], -35%; in test [11], -44%; in [14], -6%; in [10], -15%. Also, the pIC50 in test [7] was 7.72.

Turning to `CCCN1CCC[C@@H]2c3cc(O)ccc3OC[C@H]21`, the Change in [3] was -1%; in [11] it was -30%. Moreover, the IC50 on Dopamine receptor [4] worked out at 1260 nM; on Dopamine receptor [6] it was 9 nM. The pIC50 is 6.25 in [5] and 5.92 in [7].

As for `CCCN1CCC[C@@H]2c3ccccc3OC[C@H]21`, the Change in test [3] is -10%; in [14], -24%; in test [10], -19%. This compound also registered an IC50 in test [12] of 178 nM. Further, the values for the negative logarithm of the IC50 (pIC50) in test [5] and in [7] were 7.06 and 6.66, respectively.

Regarding `COc1cc(C)cc2c1[C@H]1CCCN(C)[C@@H]1CO2`, the 50% inhibitory concentration (IC50) in test [2] was 42 nM. Besides, the Change in test [14] was -11%; in test [10], -39%. Moreover, the negative logarithm of the IC50 (pIC50) in test [5] was 6.02; in [1] it was 6.08; in test [7] it was 7.12.

In the case of `CCCN1CCC=C2c3cccc(O)c3OCC21` (stereo unspecified), the Change is -34% in test [8]; -36% in [9]; -1% in [3]; -14% in test [11]; -10% in [14]; -17% in test [10].

For the compound `Cc1ccc(O)c2c1[C@H]1CCCN(C)[C@@H]1CO2`, the IC50 in [16] is 97 nM; on Dopamine receptor [4], 170 nM; on Dopamine receptor [6] it was 26 nM. Moreover, the Change in test [3] was -10%. Further, the pIC50 is 5.99 in test [5] and 7.12 in test [7].

For the compound `CCCCN1CCC[C@@H]2c3cccc(O)c3OC[C@H]21`, the figures for the Change in test [3] and in test [17] were 0% and -40%, respectively. Besides, the IC50 was 260 nM on Dopamine receptor [4] and 8 nM on Dopamine receptor [6]. The results for the pIC50 in test [5] and in test [7] were 7.41 and 5.92, respectively.

Take `CCCN1CCC=C2c3cc(O)ccc3OCC21` (stereo unspecified): the Change in [3] was 0%; in test [11] it was -14%. Besides, the IC50 on Dopamine receptor [4] was determined as 4190 nM; at Dopamine receptor [6], 51 nM. Also, the values for the negative logarithm of the IC50 (pIC50) in test [5] and in test [7] were 6.20 and 6.61, respectively.

For `CCCN1CCC[C@@H]2c3c(OC)cc(C)cc3OC[C@H]21`, the results for the Change in test [3], in [14] and in test [10] were -31%, -15% and -36%, respectively. In test [12], this compound came in with an IC50 of 86 nM. Besides, the pIC50 in test [5] was 6.30; in [7], 6.73.
